Reference: ChEMBL document CHEMBL5620355, “Discovery of intracellular self-assembly protein degraders driven by tumor-specific activatable bioorthogonal reaction” (Eur J Med Chem, 2023)
The source made the active and inactive calls. No cut-off for these calls is given here.

Key:
A549 [1] = experiment: Antiproliferative activity against human A549 cells incubated for 48 hrs in presence of 4-(4-(3-(4-chloro-3-(trifluoromethyl)phenyl)ureido)phenoxy)-N-(prop-2-yn-1-yl)picolinamide by MTT assay; format: functional, cell-based; details: A549, 48 h
U-87 MG [2] = experiment: Induction of apoptosis in human U87 cells assessed as early apoptotic cells at 10 uM incubated for 48 hrs in presence of 4-(4-(3-(4-chloro-3-(trifluoromethyl)phenyl)ureido)phenoxy)-N-(prop-2-yn-1-yl)picolinamide by Annexin V-FLTC/PI staining based flow cytometry (reference value: 8.95 %); format: functional, U-87MG ATCC
[3] = Stability of compound in PBS by HPLC analysis; format: physicochemical; details: buffer
U-87 MG [4] = experiment: Induction of apoptosis in human U87 cells assessed as early apoptotic cells at 0.1 uM incubated for 48 hrs in presence of 4-(4-(3-(4-chloro-3-(trifluoromethyl)phenyl)ureido)phenoxy)-N-(prop-2-yn-1-yl)picolinamide by Annexin V-FLTC/PI staining based flow cytometry (reference value: 8.95 %); format: functional, U-87MG ATCC
HEK293 = experiment: Cytotoxicity against HEK293 cells incubated for 48 hrs by MTT assay; format: toxicity, cell-based; details: human, hek293, 48 h
U-87 MG [5] = experiment: Induction of apoptosis in human U87 cells assessed as viable cells at 20 uM incubated for 48 hrs in presence of 4-(4-(3-(4-chloro-3-(trifluoromethyl)phenyl)ureido)phenoxy)-N-(prop-2-yn-1-yl)picolinamide by Annexin V-FLTC/PI staining based flow cytometry (reference value: 86.74 %); format: functional, U-87MG ATCC; details: read-out: Activity
U-87 MG [6] = experiment: Induction of apoptosis in human U87 cells assessed as early apoptotic cells at 5 uM incubated for 48 hrs in presence of 4-(4-(3-(4-chloro-3-(trifluoromethyl)phenyl)ureido)phenoxy)-N-(prop-2-yn-1-yl)picolinamide by Annexin V-FLTC/PI staining based flow cytometry (reference value: 8.95 %); format: functional, U-87MG ATCC
U-87 MG [7] = experiment: Antiproliferative activity against human U87 cells incubated for 48 hrs by MTT assay; format: functional, cell-based, U-87MG ATCC
[8] = target: Platelet-derived growth factor receptor beta (Homo sapiens) (UniProt P09619); experiment: Induction of PDGFR-beta degradation in human U87 cells at 10 uM incubated for 48 hrs by Western blot analysis; format: cell-based
A549 [9] = experiment: Antiproliferative activity against human A549 cells incubated for 48 hrs by MTT assay; format: functional, cell-based; details: A549, 48 h
U-87 MG [10] = experiment: Induction of apoptosis in human U87 cells assessed as viable cells at 5 uM incubated for 48 hrs in presence of 4-(4-(3-(4-chloro-3-(trifluoromethyl)phenyl)ureido)phenoxy)-N-(prop-2-yn-1-yl)picolinamide by Annexin V-FLTC/PI staining based flow cytometry (reference value: 86.74 %); format: functional, U-87MG ATCC; details: read-out: Activity
[11] = Stability of compound in H2O by HPLC analysis; format: physicochemical
U-87 MG [12] = experiment: Induction of apoptosis in human U87 cells assessed as early apoptotic cells at 20 uM incubated for 48 hrs in presence of 4-(4-(3-(4-chloro-3-(trifluoromethyl)phenyl)ureido)phenoxy)-N-(prop-2-yn-1-yl)picolinamide by Annexin V-FLTC/PI staining based flow cytometry (reference value: 8.95 %); format: functional, U-87MG ATCC
[13] = target: Platelet-derived growth factor receptor beta (Homo sapiens) (UniProt P09619); experiment: Induction of PDGFR-beta degradation in human U87 cells at 10 uM incubated for 48 hrs in presence of 4-(4-(3-(4-chloro-3-(trifluoromethyl)phenyl)ureido)phenoxy)-N-(prop-2-yn-1-yl)picolinamide by Western blot analysis; format: cell-based
U-87 MG [14] = experiment: (§1) Induction of apoptosis in human U87 cells assessed as viable cells at 0.1 uM incubated for 48 hrs in presence of (2S,4R)-1-((S)-2-(5-azidopentanamido)-3,3-dimethylbutanoyl)-4-hydroxy-N-(4-(4-methylthiazol-5-yl)benzyl)pyrrolidine-2-carboxamide by Annexin V-FLTC/PI staining based flow cytometry (reference value: 86.74 %); format: functional, U-87MG ATCC; details: read-out: Activity
U-87 MG [15] = experiment: (§2) Induction of apoptosis in human U87 cells assessed as early apoptotic cells at 0.1 uM incubated for 48 hrs in presence of (2S,4R)-1-((S)-2-(5-azidopentanamido)-3,3-dimethylbutanoyl)-4-hydroxy-N-(4-(4-methylthiazol-5-yl)benzyl)pyrrolidine-2-carboxamide by Annexin V-FLTC/PI staining based flow cytometry (reference value: 8.95 %); format: functional, U-87MG ATCC
U-87 MG [16] = experiment: as §2, with “late” for “early”, “1” for “0.1”, “3.71” for “8.95”; format: functional, U-87MG ATCC
[17] = target: Serine/threonine-protein kinase B-raf (Homo sapiens) (UniProt P15056); experiment: Induction of BRAF degradation in human U87 cells upto 10 uM incubated for 48 hrs by Western blot analysis; format: cell-based
U-87 MG [18] = experiment: Induction of apoptosis in human U87 cells assessed as early apoptotic cells at 20 uM incubated for 48 hrs in presence of (2S,4R)-1-((S)-2-(5-azidopentanamido)-3,3-dimethylbutanoyl)-4-hydroxy-N-(4-(4-methylthiazol-5-yl)benzyl)pyrrolidine-2-carboxamide by Annexin V-FLTC/PI staining based flow cytometry (reference value: 8.95 %); format: functional, U-87MG ATCC
U-87 MG [19] = experiment: Induction of apoptosis in human U87 cells assessed as late apoptotic cells at 5 uM incubated for 48 hrs in presence of (2S,4R)-1-((S)-2-(5-azidopentanamido)-3,3-dimethylbutanoyl)-4-hydroxy-N-(4-(4-methylthiazol-5-yl)benzyl)pyrrolidine-2-carboxamide by Annexin V-FLTC/PI staining based flow cytometry (reference value: 3.71 %); format: functional, U-87MG ATCC
U-87 MG [20] = experiment: as §1, with “necrotic” for “viable”, “0.60” for “86.74”; format: functional, U-87MG ATCC

Chain of Platelet-derived growth factor receptor beta (Homo sapiens) (P09619 whole entry): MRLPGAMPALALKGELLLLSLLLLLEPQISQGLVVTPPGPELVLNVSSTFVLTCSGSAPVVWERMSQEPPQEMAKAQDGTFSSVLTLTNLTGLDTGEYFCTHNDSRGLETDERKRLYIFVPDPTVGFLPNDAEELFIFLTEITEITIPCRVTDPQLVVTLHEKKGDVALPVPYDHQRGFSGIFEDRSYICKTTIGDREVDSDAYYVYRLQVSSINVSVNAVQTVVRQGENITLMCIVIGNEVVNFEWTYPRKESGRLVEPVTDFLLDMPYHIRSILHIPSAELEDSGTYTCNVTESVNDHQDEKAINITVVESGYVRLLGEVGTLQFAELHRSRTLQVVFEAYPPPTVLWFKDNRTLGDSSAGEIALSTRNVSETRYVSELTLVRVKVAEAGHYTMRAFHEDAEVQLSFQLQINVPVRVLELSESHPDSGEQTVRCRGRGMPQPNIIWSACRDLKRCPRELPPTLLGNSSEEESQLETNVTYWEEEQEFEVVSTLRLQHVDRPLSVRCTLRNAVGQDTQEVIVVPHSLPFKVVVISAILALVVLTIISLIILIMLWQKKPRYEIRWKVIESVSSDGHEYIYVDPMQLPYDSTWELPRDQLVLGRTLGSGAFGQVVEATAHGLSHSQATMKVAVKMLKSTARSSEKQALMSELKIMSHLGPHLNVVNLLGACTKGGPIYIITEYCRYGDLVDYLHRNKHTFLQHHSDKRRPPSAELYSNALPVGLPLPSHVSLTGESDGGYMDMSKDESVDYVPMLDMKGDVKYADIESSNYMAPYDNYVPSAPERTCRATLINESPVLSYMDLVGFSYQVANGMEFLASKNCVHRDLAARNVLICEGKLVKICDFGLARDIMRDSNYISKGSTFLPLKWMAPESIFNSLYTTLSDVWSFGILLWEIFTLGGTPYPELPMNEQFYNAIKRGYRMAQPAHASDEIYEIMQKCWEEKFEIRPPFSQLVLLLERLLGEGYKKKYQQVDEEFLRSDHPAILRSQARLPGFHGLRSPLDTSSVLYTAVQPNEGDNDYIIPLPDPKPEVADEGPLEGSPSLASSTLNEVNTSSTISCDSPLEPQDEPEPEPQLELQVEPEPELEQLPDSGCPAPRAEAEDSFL
Chain of Serine/threonine-protein kinase B-raf (Homo sapiens) (P15056 whole entry): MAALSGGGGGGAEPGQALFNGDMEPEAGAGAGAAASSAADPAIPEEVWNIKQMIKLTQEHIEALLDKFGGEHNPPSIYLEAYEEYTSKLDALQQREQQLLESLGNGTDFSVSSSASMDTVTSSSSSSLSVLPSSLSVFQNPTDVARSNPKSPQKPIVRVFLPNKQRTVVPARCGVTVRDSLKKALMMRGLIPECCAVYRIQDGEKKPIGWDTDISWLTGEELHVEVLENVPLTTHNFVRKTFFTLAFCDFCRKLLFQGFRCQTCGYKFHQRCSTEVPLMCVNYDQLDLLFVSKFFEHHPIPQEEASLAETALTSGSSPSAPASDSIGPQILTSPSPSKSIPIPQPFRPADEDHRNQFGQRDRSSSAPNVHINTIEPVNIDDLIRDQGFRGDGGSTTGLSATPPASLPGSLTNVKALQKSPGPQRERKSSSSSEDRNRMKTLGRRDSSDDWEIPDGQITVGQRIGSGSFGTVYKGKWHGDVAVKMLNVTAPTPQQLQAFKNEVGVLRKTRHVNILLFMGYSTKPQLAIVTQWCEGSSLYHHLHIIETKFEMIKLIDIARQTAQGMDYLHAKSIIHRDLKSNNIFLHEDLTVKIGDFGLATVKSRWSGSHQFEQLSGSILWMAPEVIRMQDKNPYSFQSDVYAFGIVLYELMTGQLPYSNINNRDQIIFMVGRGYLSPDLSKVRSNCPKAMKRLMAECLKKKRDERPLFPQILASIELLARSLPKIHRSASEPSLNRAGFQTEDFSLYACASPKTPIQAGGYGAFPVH

SMILES: [N-]=[N+]=NCCCC(=O)Nc1cccc2c1C(=O)N(C1CCC(=O)NC1=O)C2=O (centres undefined)
- IC50 (A549 [1]): 1.16 µM
- Activity (U-87 MG [2]): 0.08%
- Stability [3]: Unstable
- Activity (U-87 MG [4]): 10.27%
- Activity (HEK293): Non-Toxic
- viability at 20 µM (U-87 MG [5]): 9.88%
- Activity (U-87 MG [6]): 0.05%
- IC50 (U-87 MG [7]): > 50 µM
- Activity [8]: Active
- IC50 (A549 [9]): > 50 µM
- viability at 5 µM (U-87 MG [10]): 1.48%
- Stability [11]: Stable
- Activity (U-87 MG [12]): 4.73%
- Activity [13]: Active

SMILES: C#CCNC(=O)c1cc(Oc2ccc(NC(=O)Nc3ccc(Cl)c(C(F)(F)F)c3)cc2)ccn1
- viability at 0.1 µM (U-87 MG [14]): 85.3%
- Activity (U-87 MG [15]): 10.27%
- Activity (U-87 MG [16]): 5.43%
- Activity [17]: inactive
- Activity (U-87 MG [18]): 4.73%
- Activity (HEK293): Non-Toxic
- IC50 (U-87 MG [7]): 6.67 µM
- IC50 (A549 [9]): 2.81 µM
- Activity (U-87 MG [19]): 73.25%
- Activity (U-87 MG [20]): 1.02%
